Source: paper PMC6743422, “Preclinical disposition of MGS0274 besylate, a prodrug of a potent group II metabotropic glutamate receptor agonist MGS0008 for the treatment of schizophrenia” (Pharmacology Research & Perspectives, 2019)
Where two headings read alike, the source gives them in different places.

Assays:
[1] = humans, cited from earlier work; for oral bioavailability compared with parent compounds: transportable prodrugs
[2] = parameters: method as in PMID 17712352, PMID 11744608; settings: dogs; cited from earlier work
[3] = parameters: method as in PMID 25382826, PMID 17228865; settings: rats; cited from earlier work
[4] = parameters: method as in PMID 25382826; settings: monkeys; cited from earlier work
schizophrenia = tested on: schizophrenia; parameters: method as in PMID 24772351; settings: phase 3 clinical trial; cited from earlier work
[5] = tested on: positive and negative symptoms of schizophrenia; parameters: method as in PMID 17767166; settings: phase 2 proof-of-concept trial, compared with placebo; cited from earlier work
[6] = parameters: method as in PMID 17767166; settings: humans; cited from earlier work
[7] = tested on: human cryopreserved hepatocytes; assay: In vitro metabolite profiling in human cryopreserved hepatocytes; assay type: in vitro ADME; settings: human hepatocytes 0.5 million cells/mL, 37°C, 1 h, [14C]MGS0274 besylate 10 μmol/L
Procedure: (§1) Rat, monkey, or human cryopreserved hepatocytes in Leivovitz L‐15 medium at 0.5 million cells/mL were incubated at 37°C for 1 hour with [^14C]MGS0274 besylate at 10 μmol/L. The reaction was terminated by adding 10% w/v trichloroacetic acid solution, and the resultant mixture was centrifuged. Aliquots of the supernatant were subjected to bioanalysis using high‐performance liquid chromatography equipped with radiochemical flow detection (RI‐HPLC) (see Table S1‐B). Aliquots of the supernatant from unlabeled incubation samples and authentic standards were also injected into a liquid chromatography‐mass spectrometry (LC‐MS) system under the same chromatographic conditions to compare their chromatographic retention times and mass spectral data (see Table S1‐B).

Stability in buffers = assay type: physicochemical; settings: pH 1.2 and 6.5 as surrogate for gastrointestinal fluids; data not shown
[8] = tested on: rat cryopreserved hepatocytes; assay: In vitro metabolite profiling in rat cryopreserved hepatocytes; assay type: in vitro ADME; settings: rat hepatocytes 0.5 million cells/mL, 37°C, 1 h, [14C]MGS0274 besylate 10 μmol/L
Procedure: as §1

[9] = Hydrolytic activity against MGS0274 in monkey serum and tissue S9 fractions; assay type: in vitro ADME; settings: monkey serum
Procedure: (§2) Rat, monkey, or human serum that had been pre‐incubated for 5 minutes at 37°C was spiked with MGS0274 besylate at 10 μmol/L. After incubation for 5 to 60 minutes, the reaction was terminated by adding acetonitrile/methanol/formic acid (90:10:1, v/v/v) containing [^13C2 ^15N]MGS0008, and the resultant mixture was centrifuged. Tissue S9 fractions with final protein concentrations of 0.25 mg/mL were pre‐incubated for 5 minutes at 37°C, then spiked with MGS0274 besylate at 10 μmol/L. After incubation for 1 to 5 minutes, the reaction was terminated by adding acetonitrile/methanol/formic acid (90:10:1, v/v/v) containing [^13C2 ^15N]MGS0008, and the resultant mixture was centrifuged. Aliquots of the supernatant were subjected to bioanalysis using LC‐MS/MS (see Table S1‐C). The formation rate of MGS0008 from MGS0274 in the reaction mixture was calculated using the following equation: Formation ratenmol/min/mg protein=concentration of MGS0008,nmol/mL/incubation time,min/protein concentration,mg protein/mL

[10] = Plasma protein binding in monkey plasma; assay type: in vitro ADME, cynomolgus monkey; settings: pH 7.4, 0.1, 1, and 10 μg/mL as MGS0274, equilibrium dialysis 5 h, 37°C
Procedure: (§3) [^14C]MGS0008 was spiked with rat, monkey, or human plasma at final concentrations of 0.1, 1, and 10 μg/mL. The protein binding was evaluated according to a previously published method.11 MGS0274 besylate was spiked with monkey or human plasma at final concentrations of 0.1, 1, and 10 μg/mL as MGS0274, which was placed in a donor compartment of a 96‐well equilibrium dialysis plate (Dialysis Membrane Strips MWCO 12‐14K; HT Dialysis, Gales Ferry, CT). Sodium phosphate buffer (0.05 M, pH7.4) containing sodium chloride (0.07 M) was placed in a reservoir compartment. After incubation for 5 hours at a rate of 100 rpm at 37°C in humidified air‐5% CO2, aliquots of the plasma and dialysate were collected from each compartment, mixed with acetonitrile/methanol (9:1, v/v) containing [^2H4]MGS0274 besylate, and centrifuged. Aliquots of the supernatant were subjected to bioanalysis using liquid chromatography‐tandem mass spectrometry (LC‐MS/MS) (see Table S1‐A). The protein binding (%) was calculated based on the instruction manual of the 96‐well plate.

[11] = Hydrolytic activity against MGS0274 in human serum and tissue S9 fractions; assay type: in vitro ADME
Procedure: as §2

[12] = Plasma protein binding in human plasma; assay type: in vitro ADME; settings: pH 7.4, 0.1, 1, and 10 μg/mL as MGS0274, equilibrium dialysis 5 h, 37°C
Procedure: as §3

[13] = Hydrolytic activity against MGS0274 in rat serum and tissue S9 fractions; assay type: in vitro ADME; settings: rat serum
Procedure: as §2

[14] = tested on: monkey cryopreserved hepatocytes; assay: In vitro metabolite profiling in monkey cryopreserved hepatocytes; assay type: in vitro ADME; settings: monkey hepatocytes 0.5 million cells/mL, 37°C, 1 h, [14C]MGS0274 besylate 10 μmol/L
Procedure: as §1

[15] = parameters: method as in earlier work; settings: cited from earlier work
CYP1A2 mRNA = assay: CYP induction in primary cultured cryopreserved human hepatocytes, CYP1A2 mRNA; assay type: in vitro ADME; settings: positive control omeprazole 50 μM
Procedure: (§4) The primary cultured cryopreserved human hepatocytes were plated in a collagen‐coated 96‐well plate (Becton Dickinson, Franklin Lakes, NJ) with Williams’ Medium E (Invitrogen, Carlsbad, CA) containing Geltrex^TM (Invitrogen) and Maintenance Supplements (Invitrogen) and maintained in humidified air‐5% CO2 at 37°C for 3 days. Then, the cells were cultured for three consecutive 24‐hour treatments with MGS0008 (3‐30 µmol/L), with MGS0274 besylate (3‐30 µmol/L), or with positive controls (omeprazole for CYP1A2 at 50 µmol/L, phenobarbital for CYP2B6 at 1000 µmol/L, or rifampicin for CYP3A4 at 10 µmol/L). The mRNA expression levels of CYP1A2, 2B6, and 3A4 were measured using the real‐time polymerase chain reaction (RT‐PCR) method (7500 Fast RT‐PCR system; Applied Biosystems, Foster City, CA) with TaqMan® Fast Universal PCR Master Mix (probe ID: Hs00167927_m1 for CYP1A2, Hs04183483_g1 for CYP2B6, and Hs00604506_ml for CYP3A4; Applied Biosystems). The fold change in the mRNA expression was calculated using the 2^‐ΔΔCT method.22

CYP2B6 mRNA = assay: CYP induction in primary cultured cryopreserved human hepatocytes, CYP2B6 mRNA; settings: positive control phenobarbital 1000 μM
Procedure: as §4

## N[C@@]1(C(=O)O)CC[C@H]2[C@H](C(=O)O)[C@H]21 [LY354740, (+)‐2‐aminobicyclo[3.1.0]hexane‐2,6‐dicarboxylic acid]
[1]
  oral bioavailability: low
[2]
  oral bioavailability: high

## N[C@@]1(C(=O)O)CS(=O)(=O)[C@H]2[C@H](C(=O)O)[C@H]21 [LY404039]
[1]
  oral bioavailability: low
[3]
  oral bioavailability: high

## C[C@H](N)C(=O)N[C@@]1(C(=O)O)CC[C@H]2[C@H](C(=O)O)[C@H]21 [LY544344]
[1]
  oral bioavailability compared with parent compounds: improved oral bioavailability

## CSCC[C@H](N)C(=O)N[C@@]1(C(=O)O)CS(=O)(=O)[C@H]2[C@H](C(=O)O)[C@H]21 [LY2140023]
[4]
  systemic exposure to the prodrug, share of circulating radioactivity: ~15%
[1]
  oral bioavailability compared with parent compounds: improved oral bioavailability
schizophrenia
  efficacy in schizophrenia: failed to demonstrate efficacy
[5]
  effect on positive and negative symptoms of schizophrenia: significantly improved
[6]
  systemic exposure to the prodrug, relative to its parent compound: roughly 30%

## CC1CCC(C(C)C)C(OC(=O)OC(C)OC(=O)C2C3CC(F)C(N)(C(=O)O)C32)C1 (stereo not drawn) [MGS0274]
[7]
  metabolite profile of MGS0274: nearly and completely hydrolyzed to MGS0008
Stability in buffers
  stability in buffers: confirmed
[8]
  metabolite profile of MGS0274: nearly and completely hydrolyzed to MGS0008
[9]
  stability in serum: stable
[10]
  fraction unbound at 5 h: 0.065 to 0.076
[11]; human kidney S9 0.25 mg/mL, MGS0274 besylate 10 μmol/L, 37°C, MGS0008 not detected in the reaction mixture
  Formation rate of MGS0008: no apparent hydrolytic activity
[11]; human serum
  stability in serum: stable
[12]
  fraction unbound at 5 h: 0.039 to 0.043
[13]
  stability in serum: unstable
[14]
  metabolite profile of MGS0274: nearly and completely hydrolyzed to MGS0008

## CC(C)[C@@H]1CC[C@@H](C)C[C@H]1O [l‐menthol]
[15]
  acceptable daily intake: 4 mg/kg

## COc1ccc2[nH]c([S+]([O-])Cc3ncc(C)c(OC)c3C)nc2c1 (stereo not drawn) [omeprazole, reference compound]
CYP1A2 mRNA; hepatocyte lot Hu1487
  Fold change of mRNA expression level CYP1A2: 35.9 fold
CYP1A2 mRNA; hepatocyte lot Hu8114
  Fold change of mRNA expression level CYP1A2: 20.7 fold
CYP1A2 mRNA; hepatocyte lot Hu8123
  Fold change of mRNA expression level CYP1A2: 59.2 fold

## CCC1(c2ccccc2)C(=O)NC(=O)NC1=O [phenobarbital, reference compound]
CYP2B6 mRNA; hepatocyte lot Hu1487
  Fold change of mRNA expression level CYP2B6: 16.4 fold
CYP2B6 mRNA; hepatocyte lot Hu8114
  Fold change of mRNA expression level CYP2B6: 35.1 fold
CYP2B6 mRNA; hepatocyte lot Hu8123
  Fold change of mRNA expression level CYP2B6: 45.7 fold
